pEC50, pIC50: −log10 of the molar value.
How the values were obtained:
TNFα = assay: cells; format: cell-based, human; conditions: Homo sapiens, Monocyte, LPS-stimulated human monocytes, TNFα content; read-out: EC50 TNF
IRAK4 enzyme = IRAK4 enzyme (Homo sapiens (Human), UniProt Q9NWZ3); assay: biochemical; format: biochemical; conditions: IRAK4 enzyme, TR-FRET (HTRF), 500 μM ATP
Chain of IRAK4 enzyme (Q9NWZ3 whole entry): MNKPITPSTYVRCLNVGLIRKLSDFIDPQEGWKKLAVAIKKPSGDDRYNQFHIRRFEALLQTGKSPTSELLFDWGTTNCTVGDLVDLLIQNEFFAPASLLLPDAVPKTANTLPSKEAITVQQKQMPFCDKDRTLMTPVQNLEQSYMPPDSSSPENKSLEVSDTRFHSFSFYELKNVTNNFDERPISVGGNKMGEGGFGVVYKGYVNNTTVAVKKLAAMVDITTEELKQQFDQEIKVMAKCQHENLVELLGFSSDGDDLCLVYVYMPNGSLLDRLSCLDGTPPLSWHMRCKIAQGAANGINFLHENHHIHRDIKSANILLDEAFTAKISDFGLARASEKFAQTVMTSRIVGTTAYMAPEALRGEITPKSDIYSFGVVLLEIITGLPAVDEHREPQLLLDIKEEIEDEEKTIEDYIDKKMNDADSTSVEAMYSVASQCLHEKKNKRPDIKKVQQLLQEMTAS

SMILES | pEC50 (TNFα) | pIC50 (IRAK4 enzyme)
CC(C)(O)[C@H](F)CNC(=O)c1cnc(-c2ccc3cc(C#N)cnn23)cc1N[C@H]1CCC[C@@H](N2CCOCC2)C1 [Example 524, 6-(3-cyanopyrrolo[1,2-b]pyridazin-7-yl)-N-((R)-2-fluoro-3-hydroxy-3-methylbutyl)-4-(((1S,3R)-3-morpholinocyclohexyl)amino)nicotinamide] | 7.01 | 9.00
N#Cc1cnn2c(-c3cc(NC4COC4)c(C(=O)N[C@H]4CC[C@H](NC(=O)C5CC5)CC4)cn3)ccc2c1 [Example 526, 6-(3-cyanopyrrolo[1,2-b]pyridazin-7-yl)-N-((1r,4r)-4-(cyclopropane-carboxamido)cyclohexyl)-4-(oxetan-3-ylamino) nicotinamide] | 7.00 | 9.00
N#Cc1cnn2c(-c3cc(N[C@H]4CCC[C@@H](O)C4)c(C(=O)N[C@H]4CC[C@H](NC(=O)C5CC5)CC4)cn3)ccc2c1 [Example 527, 6-(3-cyanopyrrolo[1,2-b]pyridazin-7-yl)-N-((1r,4S)-4-(cyclopropane-carboxamido)cyclohexyl)-4-(((1S,3R)-3-hydroxycyclo-hexyl)amino)nicotinamide] | 7.80 | > 9.00
CC(C)(F)[C@H](F)CNC(=O)c1cnc(-c2ccc3cc(C#N)cnn23)cc1N[C@H]1CCC[C@@H](O)C1 [Example 530, 6-(3-cyanopyrrolo[1,2-b]pyridazin-7-yl)-N-((R)-2,3-difluoro-3-methylbutyl)-4-(((1S,3R)-3-hydroxy-cyclohexyl)amino)nicotinamide] | 8.00 | > 9.00
CC(C)Nc1cc(-c2ccc3cc(C#N)cnn23)ncc1C(=O)NC[C@@H](F)C(C)(C)F [Example 531, (R)-6-(3-cyanopyrrolo[1,2-b]pyridazin-7-yl)-N-(2,3-difluoro-3-methylbutyl)-4-(isopropylamino)nicotinamide] | 7.47 | > 9.00
CC(=O)N[C@@H]1CCC[C@H](Nc2cc(-c3ccc4cc(C#N)cnn34)ncc2C(=O)NC[C@@H](F)C(C)(C)O)C1 [Example 532, 4-(((1S,3R)-3-acetamidocyclohexyl)amino)-6-(3-cyano-pyrrolo[1,2-b]pyridazin-7-yl)-N-((R)-2-fluoro-3-hydroxy-3-methylbutyl) nicotinamide] | 6.91 | 9.00
CC(C)(O)[C@H](F)CNC(=O)c1cnc(-c2ccc3cc(C#N)cnn23)cc1N[C@H]1CCC[C@@H](N)C1 [Example 533, 4-(((1S,3R)-3-aminocyclohexyl)amino)-6-(3-cyanopyrrolo[1,2-b]pyridazin-7-yl)-N-((R)-2-fluoro-3-hydroxy-3-methylbutyl)nicotinamide] | 7.15 | > 9.00
CC(C)(O)[C@H](F)CNC(=O)c1cnc(-c2ccc3cc(C#N)cnn23)cc1N[C@H]1C[C@H](CNC(=O)C2CC2)C1 [Example 534, 6-(3-cyanopyrrolo[1,2-b]pyridazin-7-yl)-4-(((1r,3R)-3-(cyclopropane-carboxamidomethyl)cyclo-butyl)amino)-N-((R)-2-fluoro-3-hydroxy-3-methyl-butyl)nicotinamide] | 7.59 | > 9.00
CC(C)(O)[C@H](F)CNC(=O)c1cnc(-c2ccc3cc(C#N)cnn23)cc1N[C@H]1CC[C@](C)(N)CC1 [Example 535, (R)-4-((4-amino-4-methylcyclohexyl)amino)-6-(3-cyanopyrrolo[1,2-b]pyridazin-7-yl)-N-(2-fluoro-3-hydroxy-3-methylbutyl)nicotinamide] | 6.00 | 8.70
CC(C)(O)[C@H](F)CNC(=O)c1cnc(-c2ccc3cc(C#N)cnn23)cc1N[C@H]1C[C@H](CO)C1 [Example 536, 6-(3-cyanopyrrolo[1,2-b]pyridazin-7-yl)-N-((R)-2-fluoro-3-hydroxy-3-methylbutyl)-4-(((1r,3R)-3-(hydroxymethyl)cyclo-butyl)amino)nicotinamide] | 7.80 | > 9.00
CC(C)(O)[C@H](F)CNC(=O)c1cnc(-c2ccc3cc(C#N)cnn23)cc1NC12CCC(C(F)F)(CC1)CC2 [Example 537, (R)-6-(3-cyanopyrrolo[1,2-b]pyridazin-7-yl)-4-((4-(difluoromethyl)bicyclo[2.2.2]octan-1-yl)amino)-N-(2-fluoro-3-hydroxy-3-methylbutyl)nicotinamide] | 7.74 | 9.00
CCC(=O)NC[C@H]1C[C@H](Nc2cc(-c3ccc4cc(C#N)cnn34)ncc2C(=O)NC[C@@H](F)C(C)(C)O)C1 [Example 538, 6-(3-cyanopyrrolo[1,2-b]pyridazin-7-yl)-N-((R)-2-fluoro-3-hydroxy-3-methylbutyl)-4-(((1r,3R)-3-(propionamidomethyl)cyclobutyl)amino)nicotin-amide] | 7.30 | > 9.00
CC(C)OC(=O)NC[C@H]1C[C@H](Nc2cc(-c3ccc4cc(C#N)cnn34)ncc2C(=O)NC[C@@H](F)C(C)(C)O)C1 [Example 539, isopropyl (((1R,3r)-3-((2-(3-cyanopyrrolo[1,2-b]pyridazin-7-yl)-5-(((R)-2-fluoro-3-hydroxy-3-methylbutyl)carbamoyl)pyridin-4-yl)amino)cyclo-butyl)methyl)carbamate] | 7.92 | > 9.00
CCOC(=O)NC[C@H]1C[C@H](Nc2cc(-c3ccc4cc(C#N)cnn34)ncc2C(=O)NC[C@@H](F)C(C)(C)O)C1 [Example 540, ethyl (((1R,3r)-3-((2-(3-cyanopyrrolo[1,2-b]pyridazin-7-yl)-5-(((R)-2-fluoro-3-hydroxy-3-methylbutyl)carbamoyl)pyridin-4-yl)amino)cyclo-butyl)methyl)carbamate] | 7.92 | > 9.00
CN(C)C(=O)NC[C@H]1C[C@H](Nc2cc(-c3ccc4cc(C#N)cnn34)ncc2C(=O)NC[C@@H](F)C(C)(C)O)C1 [Example 541, 6-(3-cyanopyrrolo[1,2-b]pyridazin-7-yl)-4-(((1r,3R)-3-((3,3-dimethyl-ureido)methyl)cyclobutyl)amino)-N-((R)-2-fluoro-3-hydroxy-3-methylbutyl) nicotinamide] | 7.19 | > 9.00
CC(C)(O)[C@H](F)CNC(=O)c1cnc(-c2ccc3cc(C#N)cnn23)cc1N[C@H]1C[C@H](CNC(=O)C(F)(F)F)C1 [Example 542, 6-(3-cyanopyrrolo[1,2-b]pyridazin-7-yl)-N—((R)-2-fluoro-3-hydroxy-3-methylbutyl)-4-(((1r,3R)-3-((2,2,2-trifluoroacetamido)methyl)cyclobutyl)amino)nicotinamide] | 7.57 | > 9.00
COC(=O)C12CCCC(Nc3cc(-c4ccc5cc(C#N)cnn45)ncc3C(=O)NC[C@@H](F)C(C)(C)O)(CC1)CC2 [Example 543, (R)-methyl 5-((2-(3-cyano-pyrrolo[1,2-b]pyridazin-7-yl)-5-((2-fluoro-3-hydroxy-3-methylbutyl)carbamoyl)pyridin-4-yl)amino)bicyclo[3.2.2] nonane-1-carboxylate] | 7.31 | 8.70
CC(=O)NC[C@H]1C[C@H](Nc2cc(-c3ccc4cc(C#N)cnn34)ncc2C(=O)NC[C@@H](F)C(C)(C)O)C1 [Example 544, 4-(((1r,3R)-3-(acetamidomethyl)cyclobutyl)amino)-6-(3-cyanopyrrolo[1,2-b]pyridazin-7-yl)-N-((R)-2-fluoro-3-hydroxy-3-methylbutyl)nicotinamide] | 7.09 | 9.00
COC(=O)NC[C@H]1C[C@H](Nc2cc(-c3ccc4cc(C#N)cnn34)ncc2C(=O)NC[C@@H](F)C(C)(C)O)C1 [Example 545, Methyl (((1R,3r)-3-((2-(3-cyanopyrrolo[1,2-b]pyridazin-7-yl)-5-(((R)-2-fluoro-3-hydroxy-3-methylbutyl)carbamoyl)pyridin-4-yl)amino)cyclobutyl)methyl)carbamate] | 8.30 | > 9.00
CC(=O)NCC12CC(Nc3cc(-c4ccc5cc(C#N)cnn45)ncc3C(=O)NC[C@@H](F)C(C)(C)O)(C1)C2 [Example 546, (R)-4-((3-(acetamidomethyl)bicyclo[1.1.1]pentan-1-yl)amino)-6-(3-cyano-pyrrolo[1,2-b]pyridazin-7-yl)-N-(2-fluoro-3-hydroxy-3-methylbutyl) nicotinamide] | 7.05 | 9.00
COC(=O)NCC12CC(Nc3cc(-c4ccc5cc(C#N)cnn45)ncc3C(=O)NC[C@@H](F)C(C)(C)O)(C1)C2 [Example 547, (R)-methyl ((3-((2-(3-cyanopyrrolo[1,2-b]pyridazin-7-yl)-5-((2-fluoro-3-hydroxy-3-methylbutyl)carbamoyl)pyridin-4-yl)amino)bicyclo[1.1.1]pentan-1-yl)methyl)carbamate] | 7.55 | > 9.00
CC(C)(O)[C@H](F)CNC(=O)c1cnc(-c2ccc3cc(C#N)cnn23)cc1N[C@H]1C[C@H](C(C)(C)O)C1 [Example 548, 6-(3-cyanopyrrolo[1,2-b]pyridazin-7-yl)-N-((R)-2-fluoro-3-hydroxy-3-methylbutyl)-4-(((1r,3R)-3-(2-hydroxypropan-2-yl)cyclobutyl)amino) nicotinamide] | 7.66 | 9.00
CC(C)(C)OC(=O)NC[C@H]1C[C@H](Nc2cc(-c3ccc4cc(C#N)cnn34)ncc2C(=O)NC[C@@H](F)C(C)(C)O)C1 [Example 549, tert-butyl (((1R,3r)-3-((2-(3-cyanopyrrolo[1,2-b]pyridazin-7-yl)-5-(((R)-2-fluoro-3-hydroxy-3-methylbutyl)carbamoyl)pyridin-4-yl)amino)cyclobutyl)methyl)carbamate] | 6.83 | 8.70
CC(C)(C)OC(=O)NCC12CC(Nc3cc(-c4ccc5cc(C#N)cnn45)ncc3C(=O)NC[C@@H](F)C(C)(C)O)(C1)C2 [Example 550, (R)-tert-butyl ((3-((2-(3-cyanopyrrolo[1,2-b]pyridazin-7-yl)-5-((2-fluoro-3-hydroxy-3-methylbutyl)carbamoyl)pyridin-4-yl)amino)bicyclo[1.1.1]pentan-1-yl)methyl)carbamate] | 6.44 | 8.70
CC(C)Nc1cc(-c2ccc3cc(C#N)cnn23)ncc1C(=O)NCC(F)(F)CN [Example 552, N-(3-amino-2,2-difluoro-propyl)-6-(3-cyano-pyrrolo[1,2-b]pyridazin-7-yl)-4-(isopropyl-amino)nicotinamide] | 5.94 | 8.15

— patent US10336762B2 (priority 2017, dated 2019)
